Measurements taken from patent US9238688B2 (priority 2010, dated 2016).

Key:
[1] = tested on: hyaluronic acid synthase gene HAS3; assay: Expression of hyaluronic acid synthase gene HAS3, keratinocyte monolayer culture, real-time PCR; type: cell-based; conditions: human epidermal keratinocytes; final retinol concentration 10^−6 M or 10^−5 M; 6, 24 or 48 hours; Experimental Example 1
Description: (§1) Human epidermal keratinocytes (Cell Application Inc.) were seeded in a 24-well plate containing a human epidermal keratinocytes growth medium (Cell Application Inc.) so that the number of cells contained in a well was 1.5×10^5, and were cultured under the condition of 5% CO2-95% air and at 37° C. for about two days until the cells reached confluence.
(§2) Meanwhile, each tested substance was dissolved in a small amount of dimethylformamide and added to the medium, and the concentration of dimethylformamide in all experiments was adjusted to 0.1 wt %.
(§3) After culturing for a given time period, the keratinocytes were recovered and RNA was extracted therefrom. Then, the gene expression of hyaluronic acid synthases HAS2 and HAS3 were assessed by real-time PCR using the following primer pairs (Takara Bio Inc.): […]

[2] = tested on: hyaluronic acid synthase gene HAS2; assay: Expression of hyaluronic acid synthase gene HAS2, keratinocyte monolayer culture, real-time PCR; type: cell-based; conditions: human epidermal keratinocytes; final retinol concentration 10^−6 M or 10^−5 M; 6, 24 or 48 hours; Experimental Example 1
Description: as §1, §2, §3

Row | SMILES | level of HAS3 gene expression (ratio to PPIA, control after 6 hours = 1) [1] | level of HAS2 gene expression (ratio to PPIA, control after 6 hours = 1) [2]
1 | CC(=O)OC/C=C(C)/C=C/C=C(C)/C=C/C1=C(C)CCCC1(C)C [acetic acid retinol ester] | lower levels of gene expression as compared to the retinol-modified collagen | lower levels of gene expression as compared to the retinol-modified collagen
2 | CCCCCCCCCCCCCCCC(=O)OC/C=C(C)/C=C/C=C(C)/C=C/C1=C(C)CCCC1(C)C [palmitic acid retinol ester] | lower levels of gene expression as compared to the retinol-modified collagen | lower levels of gene expression as compared to the retinol-modified collagen
